From patent US7109197B2, “N-phenyl-4-(4-pyridyl)-2-pyrimidineamine derivatives” (Syngenta Crop Protection, Inc., priority 2000, dated 2006)
Structures can show the parent of a compound that is named as a salt.

How the values were obtained:
[1] = system: Venturia inaegualis; assay: Assay B-5: Residual protective activity against Venturia inaegualis on apples (scab on apple); type: in vivo; conditions: Venturia inaegualis on apple seedlings cv. McIntosh; 0.02% active substance, spray
Method: Assay B-5: Residual Protective Activity Against Venturia inaegualis on Apples (Scab on Apple) 4 week old apple seedlings cv. McIntosh are treated with the formulated testcompound (0.02% active substance) in a spray chamber. One day after application apple plants are inoculated by spraying a spore suspension (4×10^5 conidia/ml) on the test plants. After an incubation period of 4 days at 21° C. and 95% r. h. the plants are placed for 4 days at 21° C. and 60% r. h. in a greenhouse. After another 4 day incubation period at 21° C. and 95% r. h. the disease incidence is assessed.

[2] = system: Botrytis cinerea; assay: Assay B-7: Botrytis cinerea/grape (Botrytis on grapes); type: in vivo; conditions: Botrytis cinerea on grape seedlings cv. Gutedel; 0.02% active substance, spray
Method: Assay B-7: Botrytis cinerea/Grape (Botrytis on Grapes) 5 week old grape seedlings cv. Gutedel are treated with the formulated testcompound (0.02% active substance) in a spray chamber. Two days after application grape plants are inoculated by spraying a spore suspension (1×10^6 conidia/ml) on the test plants. After an incubation period of 4 days at 21° C. and 95% r. h. in a greenhouse the disease incidence is assessed.

[3] = system: Botrytis cinerea; assay: Assay B-8: Effect against Botrytis cinerea/tomato (Botrytis on tomatoes); type: in vivo; conditions: Botrytis cinerea on tomato cv. Roter Gnom; 0.02% active substance, spray
Method: Assay B-8: Effect Against Botrytis cinerea/Tomato (Botrytis on Tomatoes) 4 week old tomato plants cv. Roter Gnom are treated with the formulated testcompound 0.02% active substance) in a spray chamber. Two days after application tomato plants are inoculated by spraying a spore suspension (1×10^5 conidia/ml) on the test plants. After an incubation period of 4 days at 20° C. and 95% r. h. in a greenhouse the disease incidence is assessed.

[4] = system: Pyrenophora teres (Helminthosporium); assay: Assay B-10: Effect against Pyrenophora teres (Helminthosporium)/barley (net blotch on barley); type: in vivo; conditions: Pyrenophora teres on barley cv. Regina, 0.02% active substance, spray; for pest or weed control at 0.02 % strength: 96 h, read-out: B10 activity
Method: Assay B-10: Effect Against Pyrenophora teres (Helminthosporium)/Barley (Net Blotch on Barley) 1 week old barley plants cv. Regina are treated with a formulated testcompound (0.02% active substance) in a spray chamber. Two days after application barley plants are inoculated by spraying a spore suspension (3×10^4 conidia/ml) on the test plants. After an incubation period of 2 days at 20° C. and 95% r.h. plants are kept for 2 days at 20° C. and 60% r.h. in a greenhouse. The disease incidence is assessed 4 days after inoculation.

[5] = system: Septoria nodorum; assay: Assay B-12: Effect against Septoria nodorum/wheat (Septoria leaf spot on wheat); type: in vivo; conditions: Septoria nodorum on wheat cv. Arina, 0.02% active substance, spray; for pest or weed control at 0.02 % strength: Parastagonospora nodorum, 264 h, read-out: B12 activity
Method: Assay B-12: Effect Against Septoria nodorum/Wheat (Septoria Leaf Spot on Wheat) 1 week old wheat plants cv. Arina are treated with a formulated test compound (0.02% active substance) in a spray chamber. One day after application wheat plants are inoculated by spraying a spore suspension (5×10^5 conidia/ml) on the test plants. After an incubation period of 1 day at 20° C. and 95% r.h. plants are kept for 10 days at 20° C. and 60% r.h. in a greenhouse. The disease incidence is assessed 11 days after inoculation.

[6] = system: Pyricularia oryzae; type: in vivo; conditions: Pyricularia oryzae on rice cv. Sasanishiki; 0.02% active substance, spray

| SMILES | melting point [°C] | B5 activity [1] | B7 activity [2] | B8 activity [3] | B10 activity [4] | B12 activity [5] | B9 activity [6] | pest or weed control at 0.02 % strength [4] [%] | pest or weed control at 0.02 % strength [5] [%] |
| --- | --- | --- | --- | --- | --- | --- | --- | --- | --- |
| Clc1cccc(Nc2nccc(-c3ccnc(N4CCOCC4)c3)n2)c1 [Compound 17] | 175 to 176 |  |  |  |  |  |  |  |  |
| Clc1cccc(Nc2nccc(-c3ccnc(N4CCNCC4)c3)n2)c1 [Compound 21] | 103 to 104 |  |  |  |  |  |  |  |  |
| C=CCNc1cc(-c2ccnc(Nc3cccc(Cl)c3)n2)ccn1 [Compound 69] |  | + (the activity observed in the corresponding test system is 70% or more) | + (the activity observed in the corresponding test system is 70% or more) | + (the activity observed in the corresponding test system is 70% or more) | + (the activity observed in the corresponding test system is 70% or more) | + (the activity observed in the corresponding test system is 70% or more) |  |  |  |
| CC(C)Nc1cc(-c2ccnc(Nc3cccc(Cl)c3)n2)ccn1 (as salt: HCl) [Compound 82] | 88 to 89 |  |  |  |  |  |  |  |  |
| OCCCNc1cc(-c2ccnc(Nc3cccc(Cl)c3)n2)ccn1 [Compound 46] |  |  |  |  | + (the activity observed in the corresponding test system is 70% or more) | + (the activity observed in the corresponding test system is 70% or more) | + (the activity observed in the corresponding test system is 70% or more) |  |  |
| CC(C)(C)Nc1cc(-c2ccnc(Nc3cccc(Cl)c3)n2)ccn1 [Compound 70] | 125 to 126 |  |  | + (the activity observed in the corresponding test system is 70% or more) |  |  |  | > 70 | > 70 |
| NNc1cc(-c2ccnc(Nc3cccc(Cl)c3)n2)ccn1 [Compound 22] | 201 to 203 |  |  |  |  |  |  | > 70 |  |
| Clc1cccc(Nc2nccc(-c3ccnc(NCC4CCCO4)c3)n2)c1 (stereo not shown) [Compound 75] |  | + (the activity observed in the corresponding test system is 70% or more) | + (the activity observed in the corresponding test system is 70% or more) | + (the activity observed in the corresponding test system is 70% or more) | + (the activity observed in the corresponding test system is 70% or more) | + (the activity observed in the corresponding test system is 70% or more) |  |  |  |
| CS(=O)(=O)O.Clc1cccc(Nc2nccc(-c3ccnc(NCCCn4ccnc4)c3)n2)c1 [Compound 49] |  |  | + (the activity observed in the corresponding test system is 70% or more) | + (the activity observed in the corresponding test system is 70% or more) | + (the activity observed in the corresponding test system is 70% or more) | + (the activity observed in the corresponding test system is 70% or more) |  |  |  |
| Clc1cccc(Nc2nccc(-c3ccnc(NCCCn4ccnc4)c3)n2)c1 [Compound 43] |  |  | + (the activity observed in the corresponding test system is 70% or more) | + (the activity observed in the corresponding test system is 70% or more) | + (the activity observed in the corresponding test system is 70% or more) | + (the activity observed in the corresponding test system is 70% or more) | + (the activity observed in the corresponding test system is 70% or more) |  |  |
| CC(COc1ncccn1)Nc1cc(-c2ccnc(Nc3cccc(Cl)c3)n2)ccn1 (stereo not shown) [Compound 95] |  | + (the activity observed in the corresponding test system is 70% or more) |  |  | + (the activity observed in the corresponding test system is 70% or more) | + (the activity observed in the corresponding test system is 70% or more) |  |  |  |
| CCOC(=O)Nc1cc(-c2ccnc(Nc3cccc(Cl)c3)n2)ccn1 [Compound 121] |  |  |  |  | + (the activity observed in the corresponding test system is 70% or more) |  | + (the activity observed in the corresponding test system is 70% or more) |  |  |
| OCC(CO)Nc1cc(-c2ccnc(Nc3cccc(Cl)c3)n2)ccn1 [Compound 35] |  | + (the activity observed in the corresponding test system is 70% or more) | + (the activity observed in the corresponding test system is 70% or more) | + (the activity observed in the corresponding test system is 70% or more) | + (the activity observed in the corresponding test system is 70% or more) |  |  |  |  |
| CC(C)(CO)Nc1cc(-c2ccnc(Nc3cccc(Cl)c3)n2)ccn1 [Compound 28] |  | + (the activity observed in the corresponding test system is 70% or more) | + (the activity observed in the corresponding test system is 70% or more) | + (the activity observed in the corresponding test system is 70% or more) | + (the activity observed in the corresponding test system is 70% or more) | + (the activity observed in the corresponding test system is 70% or more) |  |  |  |
| CC(CNc1cc(-c2ccnc(Nc3cccc(Cl)c3)n2)ccn1)Cn1ccnc1 (stereo not shown) [Compound 30] |  | + (the activity observed in the corresponding test system is 70% or more) |  | + (the activity observed in the corresponding test system is 70% or more) | + (the activity observed in the corresponding test system is 70% or more) | + (the activity observed in the corresponding test system is 70% or more) |  |  |  |
| COCOCC(C)N(COC)c1cc(-c2ccnc(Nc3cccc(Cl)c3)n2)ccn1 (stereo not shown) [Compound 38] |  | + (the activity observed in the corresponding test system is 70% or more) |  |  | + (the activity observed in the corresponding test system is 70% or more) | + (the activity observed in the corresponding test system is 70% or more) |  |  |  |
| CCC(=O)Nc1cc(-c2ccnc(Nc3cccc(Cl)c3)n2)ccn1 [Compound 96] | 215 to 216 | + (the activity observed in the corresponding test system is 70% or more) |  |  |  |  |  | > 70 | > 70 |
| Cl.Clc1cccc(Nc2nccc(-c3ccnc(NC4CCOC4)c3)n2)c1 (stereo not shown) [Compound 125] |  |  |  | + (the activity observed in the corresponding test system is 70% or more) | + (the activity observed in the corresponding test system is 70% or more) | + (the activity observed in the corresponding test system is 70% or more) | + (the activity observed in the corresponding test system is 70% or more) |  |  |
| CCC(C)C(CO)Nc1cc(-c2ccnc(Nc3cccc(Cl)c3)n2)ccn1 (stereo not shown) [Compound 41] |  | + (the activity observed in the corresponding test system is 70% or more) | + (the activity observed in the corresponding test system is 70% or more) |  | + (the activity observed in the corresponding test system is 70% or more) |  |  |  |  |
| CNc1cc(-c2ccnc(Nc3cccc(Cl)c3)n2)ccn1 [Compound 64] | 196 to 197 |  |  | + (the activity observed in the corresponding test system is 70% or more) |  |  |  | > 70 | > 70 |
| CCNc1cc(-c2ccnc(Nc3cccc(Cl)c3)n2)ccn1 [Compound 60] | 201 | + (the activity observed in the corresponding test system is 70% or more) | + (the activity observed in the corresponding test system is 70% or more) | + (the activity observed in the corresponding test system is 70% or more) |  |  |  | > 70 | > 70 |
